In a compilation of properties of binary mixtures (doi:10.1016/j.fluid.2021.113175):

Assay: xn = mol fraction of the nth substance listed
Conditions: 100 kPa

CC[N+]1(C)CCCC1.COP(=O)([O-])OC + CCO
viscosity [mPa·s]
Conditions | 293.15 K | 298.15 K | 303.15 K | 308.15 K | 313.15 K | 318.15 K | 323.15 K | 328.15 K | 333.15 K | 338.15 K
x1 = 0.0534 | – | 2.03 | 1.84 | 1.7 | 1.59 | 1.47 | – | 1.27 | 1.18 | –
x1 = 0.1054 | 3.4 | 3.06 | 2.75 | 2.51 | 2.31 | – | 1.96 | – | 1.71 | 1.6
x1 = 0.1535 | – | – | – | 3.68 | 3.33 | 3.06 | – | 2.61 | 2.42 | 2.23
x1 = 0.2015 | 6.75 | 6.07 | 5.35 | 4.78 | 4.33 | 3.97 | – | – | – | 2.8
x1 = 0.306 | 13.5 | – | 10.16 | 8.72 | 7.62 | 6.71 | 6.04 | 5.41 | 4.85 | 4.4
x1 = 0.4029 | 23.1 | 19.4 | 16.43 | 13.96 | 11.88 | 10.18 | 8.85 | 7.81 | 6.85 | 6
x1 = 0.5052 | 37.5 | 30.3 | 24.7 | – | 17.4 | 14.83 | 12.49 | 10.82 | 9.31 | 8
x1 = 0.6022 | 57 | 45.9 | 36.3 | 29.9 | 24.6 | 20.4 | 17.4 | – | 12.65 | 10.78
x1 = 0.6938 | 83.2 | 64.5 | 50.1 | – | 32.4 | 27 | – | 19 | 16.05 | 13.13
x1 = 0.8049 | 120.2 | 91.1 | 70 | 54.9 | 44 | 35.6 | – | – | 20.3 | 16.7
x1 = 0.9073 | 171 | 127.5 | 94.7 | 73.8 | 57.5 | 46.3 | 38 | 31 | 24.5 | –
x1 = 1 | 228 | 169 | – | – | 72.8 | 56.4 | 45.1 | 36.6 | 29.8 | –

CCO + COP(=O)([O-])OC.C[N+]1(CCO)CCCC1
x2 = 0
Conditions | viscosity [mPa·s]
293.15 K | 1.19
303.15 K | 0.98
308.15 K | 0.9
313.15 K | 0.82
318.15 K | 0.75
323.15 K | 0.69
328.15 K | 0.63
333.15 K | 0.58
338.15 K | 0.54

CCO + CC[N+]1(C)CCCC1.COP(=O)([O-])OC
x2 = 0
Conditions | viscosity [mPa·s]
293.15 K | 1.19
298.15 K | 1.08
303.15 K | 0.98
313.15 K | 0.82
323.15 K | 0.69
338.15 K | 0.54

COP(=O)([O-])OC.C[N+]1(CCO)CCCC1 + CCO
viscosity [mPa·s]
Conditions | 293.15 K | 298.15 K | 303.15 K | 308.15 K | 313.15 K | 318.15 K | 323.15 K | 328.15 K | 333.15 K | 338.15 K
x1 = 0.0561 | 2.69 | 2.27 | – | – | 1.54 | 1.33 | 1.17 | 1.04 | 0.92 | 0.82
x1 = 0.1077 | – | 4.39 | 3.88 | – | 3.23 | 2.94 | 2.69 | 2.47 | 2.28 | 2.1
x1 = 0.1523 | 7.31 | 6.71 | 6.24 | – | 5.31 | 4.98 | 4.66 | 4.37 | 4.09 | 3.85
x1 = 0.2079 | – | 10.91 | – | 8.65 | 7.87 | – | 6.44 | – | 5.33 | 4.93
x1 = 0.2537 | 19.2 | 16.9 | 14.81 | 13.08 | 11.56 | – | 9.55 | 8.62 | 8 | 7.27
x1 = 0.3084 | – | 27.7 | – | – | 18.5 | 16.22 | 14.35 | – | 11.68 | 10.55
x1 = 0.4033 | – | 48.5 | 40.2 | 34.3 | 30 | – | 22.9 | 20.3 | – | –
x1 = 0.5077 | – | 98.2 | – | 64.3 | 53.4 | – | – | 33.1 | 28 | –
x1 = 0.6042 | 220 | 174 | 133.8 | 108.1 | 87.6 | 72.1 | – | – | 42 | –
x1 = 0.7053 | – | – | 219 | 167 | 128.5 | 102.3 | 82.6 | 66.1 | – | 43.3
x1 = 0.8055 | 670 | – | 346 | 257 | 196 | 152.8 | 120.7 | 95 | 76.3 | –
x1 = 0.9053 | 1030 | 722 | 512 | 374 | – | 212 | 163 | 128.6 | 102.4 | 80.5
x1 = 1 | 1452 | 981 | 687 | 496 | 366 | – | 210 | 162 | 127.5 | 96.7
